Measurements from ChEMBL document CHEMBL5346920, “Development of the "hidden" multi-target-directed ligands by AChE/BuChE for the treatment of Alzheimer's disease” (Eur J Med Chem, 2023).
pIC50: −log10 of the molar value. Calls of active or inactive are those of the source. The calls are words filed in the database; no cut-off is given here.

Assays:
[1] = biological target: T1, Amine oxidase [flavin-containing] B (Homo sapiens, UniProt P27338); assay: Inhibition of human recombinant MAO-B expressed in baculovirus-infected BTI cells using kynuramine as substrate incubated for 30 mins by fluorescence based analysis
T1 sequence (P27338 whole entry): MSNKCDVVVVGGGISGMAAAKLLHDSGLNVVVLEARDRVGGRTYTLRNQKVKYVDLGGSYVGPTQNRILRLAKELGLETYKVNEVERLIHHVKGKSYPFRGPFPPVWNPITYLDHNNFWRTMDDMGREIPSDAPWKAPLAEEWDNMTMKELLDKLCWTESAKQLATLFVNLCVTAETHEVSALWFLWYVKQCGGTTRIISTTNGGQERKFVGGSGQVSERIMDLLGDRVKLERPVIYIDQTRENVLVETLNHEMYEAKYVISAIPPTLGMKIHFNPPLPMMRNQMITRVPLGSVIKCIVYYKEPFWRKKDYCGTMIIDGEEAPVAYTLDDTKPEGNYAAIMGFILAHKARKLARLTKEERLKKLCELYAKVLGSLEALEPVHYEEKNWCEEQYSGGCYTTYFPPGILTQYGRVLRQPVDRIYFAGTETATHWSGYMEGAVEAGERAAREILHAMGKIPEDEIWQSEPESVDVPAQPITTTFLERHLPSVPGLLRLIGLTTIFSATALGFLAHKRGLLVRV

Homo sapiens = species: Homo sapiens; assay: Selectivity index, ratio of IC50 for inhibition of human recombinant MAO-A expressed in baculovirus-infected BTI cells to IC50 for inhibition of human recombinant MAO-B expressed in baculovirus-infected BTI cells
PC-12 = assay: Neuroprotective activity against Amyloid beta(25 to 35)-induced cell injury in rat PC12 cells assessed as cell viability at 10 uM pretreated for 2 hrs followed by incubation with Abeta(25 to 35) for 24 hrs by CCK-8 assay (reference value: 41 to 58.6%); format: functional; details: time 26 hrs, read-out: Activity
Acetylcholinesterase = Acetylcholinesterase (Electrophorus electricus, UniProt O42275); assay: Inhibition of electric eel AChE using acetylthiocholine chloride as substrate by Ellman's method
Sequence of Acetylcholinesterase (O42275 whole entry): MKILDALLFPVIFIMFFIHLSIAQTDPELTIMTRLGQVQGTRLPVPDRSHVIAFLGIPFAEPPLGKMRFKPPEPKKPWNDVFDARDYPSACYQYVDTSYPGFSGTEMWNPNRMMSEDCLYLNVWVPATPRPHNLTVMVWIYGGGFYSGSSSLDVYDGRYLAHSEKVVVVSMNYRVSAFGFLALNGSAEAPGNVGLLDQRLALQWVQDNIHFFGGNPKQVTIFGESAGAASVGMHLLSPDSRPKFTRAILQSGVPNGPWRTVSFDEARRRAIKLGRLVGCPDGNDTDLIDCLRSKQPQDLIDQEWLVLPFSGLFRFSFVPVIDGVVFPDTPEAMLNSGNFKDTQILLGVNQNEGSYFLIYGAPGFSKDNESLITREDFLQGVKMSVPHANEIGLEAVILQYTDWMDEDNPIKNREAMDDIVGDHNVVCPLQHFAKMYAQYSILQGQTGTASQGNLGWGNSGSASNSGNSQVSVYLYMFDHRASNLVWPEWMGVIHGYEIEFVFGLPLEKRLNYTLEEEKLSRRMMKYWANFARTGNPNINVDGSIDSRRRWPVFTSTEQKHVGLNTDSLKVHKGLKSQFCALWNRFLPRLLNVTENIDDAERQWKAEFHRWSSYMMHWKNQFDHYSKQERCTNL

[2] = Selectivity index, ratio of IC50 for inhibition of electric eel AChE to IC50 for inhibition of equine serum BuChE
[3] = biological target: Acetylcholinesterase (Electrophorus electricus) (UniProt O42275); assay: Reversible inhibition of electric eel AChE assessed as enzyme activity using acetylthiocholine iodide as substrate measured after dilution to 0.1XIC50 for 120 mins by Ellman's method; parameters: scale not given: the % may be the effect or the level left
Sequence of Acetylcholinesterase (Electrophorus electricus) (O42275 24-633 limits assumed): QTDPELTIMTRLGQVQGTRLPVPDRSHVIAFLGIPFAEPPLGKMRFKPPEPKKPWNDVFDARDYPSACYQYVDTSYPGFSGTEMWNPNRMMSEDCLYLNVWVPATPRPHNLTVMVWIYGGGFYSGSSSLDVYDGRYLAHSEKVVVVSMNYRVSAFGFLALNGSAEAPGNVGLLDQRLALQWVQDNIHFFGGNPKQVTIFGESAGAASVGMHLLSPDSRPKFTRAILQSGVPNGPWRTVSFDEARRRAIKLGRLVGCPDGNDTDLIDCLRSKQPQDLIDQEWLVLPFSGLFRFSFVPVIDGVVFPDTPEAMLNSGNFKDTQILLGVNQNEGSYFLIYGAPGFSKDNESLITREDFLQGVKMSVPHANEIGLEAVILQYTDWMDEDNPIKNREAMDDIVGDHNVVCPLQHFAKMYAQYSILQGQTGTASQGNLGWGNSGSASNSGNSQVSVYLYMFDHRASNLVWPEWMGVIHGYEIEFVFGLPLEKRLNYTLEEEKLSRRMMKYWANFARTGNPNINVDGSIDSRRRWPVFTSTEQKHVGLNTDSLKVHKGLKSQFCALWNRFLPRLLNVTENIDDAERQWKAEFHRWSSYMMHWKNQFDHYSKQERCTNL

[4] = Permeability of the compound at 100 ug/ml incubated for 18 hrs by PAMPA assay; format: ADME; details: dose 100 µg/ml, read-out: permeability
Danio rerio [5] = species: Danio rerio; assay: Antialzheimer activity against AlCl3-induced Alzheimer's disease zebra fish model assessed as total distance moved at 0.078 ug/ml treated for 24 hrs and measured after 24 hrs under light environment (reference value: 230 cm); format: functional; details: dose 0.078 µg/ml; time 48 hrs
Danio rerio [6] = species: Danio rerio; assay: Antialzheimer activity against AlCl3-induced Alzheimer's disease zebra fish model assessed as total distance moved at 0.078 ug/ml treated for 24 hrs and measured after 24 hrs under dark environment (reference value: 312 cm); format: functional; details: dose 0.078 µg/ml; time 48 hrs
Danio rerio [7] = species: Danio rerio; assay: Antialzheimer activity against AlCl3-induced Alzheimer's disease zebra fish model assessed as distance velocity at 0.0049 ug/ml treated for 24 hrs and measured after 24 hrs under light environment (reference value: 7.7 cm/min); format: functional; details: dose 0.0049 µg/ml; time 48 hrs
Danio rerio [8] = species: Danio rerio; assay: Neuroprotective activity against AlCl3-induced Alzheimer's disease zebra fish model assessed as distance velocity at 0.0195 ug/ml treated for 24 hrs and measured after 24 hrs under dark environment (reference value: 10.4 cm/min); format: functional; details: dose 0.0195 µg/ml; time 48 hrs
Danio rerio [9] = species: Danio rerio; assay: Neuroprotective activity against AlCl3-induced Alzheimer's disease zebra fish model assessed as inhibition of AlCl3-induced AChE activity at 0.0049 to 0.078 ug/ml treated for 24 hrs and measured after 24 hrs; format: functional, organism-based; details: dose 0.0049-0.078 µg/ml, time 48.0 hrs

Structure (SMILES): CCN(C)C(=O)Oc1ccccc1C(=O)/C=C/c1ccc(F)cc1
- pIC50 [1]: 5.72
- Ratio IC50 (Homo sapiens): 20.1
- viability at 10 µM (PC-12): 75%
- pIC50 (Acetylcholinesterase): 5.28
- Ratio IC50 [2]: 0.43
- Activity [3]: 88.7%
- Papp at 18 h, 100 ug/ml [4]: 16.8 ×10⁻⁶ cm/s
- Activity (Danio rerio [5]): 226 cm
- Activity (Danio rerio [6]): 537 cm
- Activity (Danio rerio [7]): 12.4 cm/min
- Activity (Danio rerio [8]): 19.2 cm/min
- Activity (Danio rerio [9]): Active
